Laboratory results published in US8685977B2, “Chemical compounds” (Pfizer Limited, priority 2010, dated 2014).

Target: T1, Nav1.7 (or SCN9A) channel (Homo sapiens, UniProt Q15858)
T1 construct: expressed in transfected cells
Test: Nav1.7 PatchXpress 7000 automated electrophysiology assay (HEK cells stably expressing hSCN9A)
Assay type: cell-based
Settings: voltage-clamped at V1/2 of inactivation, read-out: Nav1.7 EIC50
Summary of the method: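 Automated whole-cell clamp (PatchXpress) of HEK cells stably expressing hSCN9A, at 22-24 °C, in extracellular buffer at pH 7.4. Cells were held at the measured V1/2 of inactivation, then stepped to 0 mV for 20 ms. Single-concentration % inhibition gave EIC50 = concentration × (100 − %inhibition)/%inhibition, excluding <20% or >80%.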

T1 sequence (Q15858 whole entry): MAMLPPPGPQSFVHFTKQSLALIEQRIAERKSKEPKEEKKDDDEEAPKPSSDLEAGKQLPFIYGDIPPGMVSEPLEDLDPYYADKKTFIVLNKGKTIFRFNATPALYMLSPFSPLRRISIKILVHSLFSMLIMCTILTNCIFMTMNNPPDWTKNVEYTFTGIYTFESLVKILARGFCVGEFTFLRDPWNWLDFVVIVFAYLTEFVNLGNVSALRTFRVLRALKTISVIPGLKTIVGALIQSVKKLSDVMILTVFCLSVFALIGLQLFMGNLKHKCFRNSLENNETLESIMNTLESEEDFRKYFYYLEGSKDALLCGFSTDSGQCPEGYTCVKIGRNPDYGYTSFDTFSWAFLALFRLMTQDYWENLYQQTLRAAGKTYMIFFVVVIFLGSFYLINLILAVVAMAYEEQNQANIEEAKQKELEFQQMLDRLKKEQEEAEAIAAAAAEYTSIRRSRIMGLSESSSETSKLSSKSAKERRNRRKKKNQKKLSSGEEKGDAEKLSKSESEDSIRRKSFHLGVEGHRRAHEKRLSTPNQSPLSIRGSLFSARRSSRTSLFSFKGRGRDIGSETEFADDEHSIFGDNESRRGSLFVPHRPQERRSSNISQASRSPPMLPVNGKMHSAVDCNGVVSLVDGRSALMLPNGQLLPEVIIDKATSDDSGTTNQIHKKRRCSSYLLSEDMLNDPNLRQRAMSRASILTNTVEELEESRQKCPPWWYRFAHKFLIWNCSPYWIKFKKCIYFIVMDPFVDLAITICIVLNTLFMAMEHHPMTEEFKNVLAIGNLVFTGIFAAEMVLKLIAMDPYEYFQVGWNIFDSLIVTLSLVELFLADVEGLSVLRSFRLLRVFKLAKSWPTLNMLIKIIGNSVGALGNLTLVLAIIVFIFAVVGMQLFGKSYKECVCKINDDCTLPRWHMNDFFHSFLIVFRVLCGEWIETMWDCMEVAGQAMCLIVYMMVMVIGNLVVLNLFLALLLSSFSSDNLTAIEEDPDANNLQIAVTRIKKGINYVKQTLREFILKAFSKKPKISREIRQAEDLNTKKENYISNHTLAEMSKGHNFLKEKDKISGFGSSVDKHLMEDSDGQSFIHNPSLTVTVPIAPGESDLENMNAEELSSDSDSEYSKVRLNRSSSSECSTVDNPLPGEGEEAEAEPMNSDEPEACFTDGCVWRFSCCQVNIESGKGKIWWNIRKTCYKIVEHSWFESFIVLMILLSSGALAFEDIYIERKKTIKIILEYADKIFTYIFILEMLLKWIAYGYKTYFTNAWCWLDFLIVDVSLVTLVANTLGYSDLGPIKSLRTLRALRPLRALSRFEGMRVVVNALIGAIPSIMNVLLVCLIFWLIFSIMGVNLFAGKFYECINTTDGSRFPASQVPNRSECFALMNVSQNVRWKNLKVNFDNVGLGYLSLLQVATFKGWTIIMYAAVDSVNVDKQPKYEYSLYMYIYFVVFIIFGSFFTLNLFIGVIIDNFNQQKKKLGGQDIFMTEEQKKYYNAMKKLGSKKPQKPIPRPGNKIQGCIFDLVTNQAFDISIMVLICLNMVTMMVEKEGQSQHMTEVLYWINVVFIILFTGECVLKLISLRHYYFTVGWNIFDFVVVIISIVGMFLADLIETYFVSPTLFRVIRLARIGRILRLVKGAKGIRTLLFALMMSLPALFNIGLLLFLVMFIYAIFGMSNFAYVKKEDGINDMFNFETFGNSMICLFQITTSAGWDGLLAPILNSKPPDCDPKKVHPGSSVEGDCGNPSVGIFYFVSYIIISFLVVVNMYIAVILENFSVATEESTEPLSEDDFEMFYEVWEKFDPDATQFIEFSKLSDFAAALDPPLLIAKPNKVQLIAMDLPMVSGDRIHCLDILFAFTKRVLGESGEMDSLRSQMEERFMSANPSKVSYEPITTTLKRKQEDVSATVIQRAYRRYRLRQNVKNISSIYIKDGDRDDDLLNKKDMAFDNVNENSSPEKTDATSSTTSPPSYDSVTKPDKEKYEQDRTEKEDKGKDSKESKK

Question: How did the IC50 turn out when CS(=O)(=O)NC(=O)c1cc(F)c(Oc2cc(C(F)(F)F)ccc2Cl)cc1F [Example 121, 4-[2-chloro-5-(trifluoromethyl)phenoxy]-2,5-difluoro-N-(methylsulfonyl)benzamide] was run?
Answer: > 1 µM

Question: Cc1ccc(F)c(Oc2cc(F)c(C(=O)NS(C)(=O)=O)cc2F)c1 [Example 122, 2,5-difluoro-4-(2-fluoro-5-methylphenoxy)-N-(methylsulfonyl)benzamide] was tested. Which IC50 did it give?
Answer: 4.4 µM

Question: Which IC50 does the source give for CS(=O)(=O)NC(=O)c1cc(F)c(Oc2ccc(Cl)cc2Cl)cc1F [Example 123, 4-(2,4-dichlorophenoxy)-2,5-difluoro-N-(methylsulfonyl)benzamide] here?
Answer: 2 µM

Question: With CS(=O)(=O)NC(=O)c1cc(F)c(Oc2cccc(OC(F)(F)F)c2)cc1F [Example 124, 2,5-difluoro-N-(methylsulfonyl)-4-[3-(trifluoromethoxy)phenoxy]benzamide] as the compound, how does the IC50 read?
Answer: 0.49 µM

Question: CS(=O)(=O)NC(=O)c1cc(F)c(Oc2cccc(C#N)c2)cc1F [Example 125, 4-(3-cyanophenoxy)-2,5-difluoro-N-(methylsulfonyl)benzamide] was tested. Which IC50 did it give?
Answer: > 3 µM

Question: CS(=O)(=O)NC(=O)c1cc(F)c(Oc2ccc(F)cc2C2CC2)cc1F [Example 126, 4-(2-cyclopropyl-4-fluorophenoxy)-2,5-difluoro-N-(methylsulfonyl)benzamide] was tested. Which IC50 did it give?
Answer: > 1 µM

Question: Cc1ccc(C)c(Oc2cc(F)c(C(=O)NS(C)(=O)=O)cc2F)c1 [Example 127, 4-(2,5-dimethylphenoxy)-2,5-difluoro-N-(methylsulfonyl)benzamide] was tested. Which IC50 did it give?
Answer: > 3 µM

Question: CS(=O)(=O)NC(=O)c1cc(F)c(Oc2cc(F)cc(F)c2)cc1F [Example 128, 4-(3,5-difluorophenoxy)-2,5-difluoro-N-(methylsulfonyl)benzamide] was tested. Which IC50 did it give?
Answer: 11 µM

Question: CS(=O)(=O)NC(=O)c1cc(F)c(Oc2ccc(Cl)cc2)cc1F [Example 129, 4-(4-chlorophenoxy)-2,5-difluoro-N-(methylsulfonyl)benzamide] was tested. Which IC50 did it give?
Answer: 1.3 µM

Question: With CS(=O)(=O)NC(=O)c1cc(F)c(Oc2ccc(F)cc2C#N)cc1F [Example 130, 4-(2-cyano-4-fluorophenoxy)-2,5-difluoro-N-(methylsulfonyl)benzamide] as the compound, how does the IC50 read?
Answer: > 3 µM

Question: For CS(=O)(=O)NC(=O)c1cc(F)c(Oc2ccc(F)cc2)cc1F [Example 131, 2,5-difluoro-4-(4-fluorophenoxy)-N-(methylsulfonyl)benzamide], which IC50 is on record?
Answer: 3.8 µM

Question: How did the IC50 turn out when Cc1cc(C#N)cc(C)c1Oc1cc(F)c(C(=O)NS(C)(=O)=O)cc1F [Example 132, 4-(4-cyano-2,6-dimethylphenoxy)-2,5-difluoro-N-(methylsulfonyl)benzamide] was run?
Answer: > 3 µM

Question: Which IC50 does the source give for Cc1ccc(Cl)cc1Oc1cc(F)c(C(=O)NS(C)(=O)=O)cc1F [Example 133, 4-(5-chloro-2-methylphenoxy)-2,5-difluoro-N-(methylsulfonyl)benzamide] here?
Answer: > 3 µM

Question: How did the IC50 turn out when COc1cccc(Oc2cc(F)c(C(=O)NS(C)(=O)=O)cc2F)c1 [Example 134, 2,5-difluoro-4-(3-methoxyphenoxy)-N-(methylsulfonyl)benzamide] was run?
Answer: > 3 µM

Question: Which IC50 does the source give for COc1cc(C#N)ccc1Oc1cc(F)c(C(=O)NS(C)(=O)=O)cc1F [Example 135, 4-(4-cyano-2-methoxyphenoxy)-2,5-difluoro-N-(methylsulfonyl)benzamide] here?
Answer: > 3 µM

Question: Which IC50 does the source give for CS(=O)(=O)NC(=O)c1cc(F)c(Oc2cccc(C(F)(F)F)c2)cc1F [Example 138, 2,5-difluoro-N-(methylsulfonyl)-4-[3-(trifluoromethyl)phenoxy]benzamide] here?
Answer: 6.6 µM

Question: With Cc1ccc(Oc2cc(F)c(C(=O)NS(C)(=O)=O)cc2F)cc1C [Example 141, 4-(3,4-dimethylphenoxy)-2,5-difluoro-N-(methylsulfonyl)benzamide] as the compound, how does the IC50 read?
Answer: 2.5 µM

Question: Which IC50 does the source give for CS(=O)(=O)NC(=O)c1cc(F)c(Oc2cccc(F)c2)cc1F [Example 142, 2,5-difluoro-4-(3-fluorophenoxy)-N-(methylsulfonyl)benzamide] here?
Answer: > 3 µM

Question: With CS(=O)(=O)NC(=O)c1cc(F)c(Oc2ccc(Cl)c(F)c2)cc1F [Example 143, 4-(4-chloro-3-fluorophenoxy)-2,5-difluoro-N-(methylsulfonyl)benzamide] as the compound, how does the IC50 read?
Answer: 4.7 µM
